# Measurements published in patent publication US20050058745A1, “Use of Labiatae herb preparations for extending the flavor shelf life of malt beverages” (priority 2003, published 2005).
# Entries after “also recorded” stand apart in the source; their conditions may differ.
# Columns and labels:
# [1] = HPLC cis/trans ratio of isohumulone in beer stored at 40° C.; format: physicochemical; conditions: for Cis/Trans Ratio of Isohumulone: 20 ppm of each constituent
# Experimental: One case of bottles was opened, 20 ppm carnosic acid and 20 ppm rosmarinic acid in the form of a propylene glycol solution was added and the bottles fobbed and crowned according to the procedure detailed in Example 1. An additional case was opened, fobbed and crowned in the same manner, and designated “Control”. All bottles were put in a 40° C. temperature controlled hot room. Samples of the above beer were taken at 0 time, 7, 21, 35, 44 and 58 days for HPLC hop acid analysis by a modification of the method of Burroughs and Williams [1999]. Beer samples (100 mL) were gently poured into tall-form beakers to avoid excessive foaming. Octanol (1-2 drops) was added to minimize foam, and the beer was sparged with helium for 10-15 minutes to degas them. The degased beer was transferred to a 2 mL autosampler vial and assayed according to the method in the reference.
# The level of trans declines faster than the level of cis isomers. The trans isomers in this example are 28% of the total hop acids.
# [2] = DCIP redox potential of the beer of Example 1, with added air; format: physicochemical; conditions: 20 ppm CA, Plus Air
# Experimental: A 10 mg/mL solution of carnosic acid was prepared by taking 250 mg of 100% pure crystal by HPLC and diluting to a total volume of 25 mL with ethanol.
# The bottle dosing process from Example 1 was modified to allow for the inclusion of air. • A bottle of the beer was opened, struck sharply on the top to induce foaming (called “fobbing”), and crowned. The fobbing excludes air. The bottle was swirled and inverted. This sample was designated No CA, No Air. • A bottle was opened and dosed with 7.1 mg of CA (20 ppm) to a 12 oz bottle from 710 μL of the above solution. After addition we gave the headspace two puffs of air, from a 25 mL squeeze bulb. The bottle was crowned, swirled and inverted without fobbing. […]
# A standard solution of […] sodium salt (DCIP) at a concentration of 145 mg/dL was prepared by the method described in Methodensammlung der Mitteleuropäischen Brautechnischene Analösen Kommission, Vierte Ausgabe 2002, Editor Prof. […] The concentration of DCIP in mg/dL was measured by multiplying the mL of titer by 14.5. […]
# The beers were stored in a 39° C. box for 14 days. […] The beers to be analyzed (the four treatments above) were degassed by centrifuging at 6,000 rpm for 15 min. […] Some of the degassed beer was poured to fill a 1 cm cuvette and placed in a spectrophotometer set to record the absorbance at 520 nm. […]
# The “Redox Potential” was calculated by using the formula: [formula]
# [3] = DCIP redox potential vs CA concentration, semi-light beer; format: physicochemical; conditions: 4 hr, 2-4° C.
# Experimental: (§1) The light beer was purchased at a local market and was 2 months old at time of use. Carnosic acid was added via a 1% ethanol solution made with pure CA. The levels of addition were 0, 5, 10, 15 and 20 ppm. The beers were opened, additions made and the beers were fobbed and crowned as described in Example 4. All analyses were done in triplicate using the DCIP method as described in Example 4. The samples were refrigerated for approx. 4 hr before being degassed and analyzed.
# The same experiment was carried out with a semi-light beer with a production code indicating it was 5 months old.
# [4] = DCIP redox potential vs CA concentration, light beer; format: physicochemical; conditions: 4 hr, 2-4° C.
# Experimental: as §1
# [5] = Stability of RA in 9.5% tetrahydroisohumulone solution at pH 8; format: physicochemical; conditions: pH 8, room temperature
# Experimental: A solution of rosmarinic acid in 9.5% tetrahydroisohumulone at pH 8 was prepared and allowed to stand at room temperature for an extended period of time to determine stability.
# [6] = Scaling sensory panel for staling, model citrus beverage; conditions: for Panelist staling Average (0 fresh, 10 most stale): 50 ppm (RA/CA: 50 ppm each)
# Experimental: Carbon filtered water was carbonated to 3.5 to 4 times the volume of beer. 59.2 ml of syrup was added to each 355 ml bottle. Each bottle was individually dosed with the treatments listed in Table 22 by adding 1.775 mL of a 1% (weight/volume) solution of carnosol or rosmarinic acid in ethanol to give 50 ppm of each. The bottle was filled to approximately 355 ml with carbonated water before it was capped and inverted. Fresh samples were stored in the refrigerator (0° C.). Heat exposed samples were aged in the oven (32° C.) for seven days. The sensory data were taken in the following manner. Each sample (controls and treatments) was presented to the panelists one time. Panelists rated the beers on a scale of 0-10, with 0 being fresh and 10 being most stale. Panelists were given examples of a fresh and stale material prior to the panel for training on these characteristics. Since the output of the panel as a whole was desired, and not any one individual panelist, the means of each treatment sample in each replicate groups were calculated and tabulated as in Table 24. […] These diluted samples best represent the loss in flavor that occurs when the sample is thermally aged. […] Statistical analysis consisted of doing paired t-Tests on the treatment sample vs. the aged control sample (Table 25). One-tailed tests were used that probed the question whether the […] values of one treatment were lower than that of the other (e.g treatment vs. control). Confidence levels were reported along with p values.
smiles,measurement,setting,value
"CC(C)c1cc2c(c(O)c1O)[C@@]1(C(=O)O)CCCC(C)(C)[C@@H]1CC2 [CA, carnosic acid]",time up to which the cis/trans level was helped to be maintained,"[1]; 20 ppm CA, 40° C.",about 35 days
same,Cis/Trans Ratio of Isohumulone,"[1]; Day 0, 40° C.",2.699
same,Cis/Trans Ratio of Isohumulone,"[1]; Day 7, 40° C.",2.850
same,Cis/Trans Ratio of Isohumulone,"[1]; Day 21, 40° C.",3.947
same,Cis/Trans Ratio of Isohumulone,"[1]; Day 35, 40° C.",5.450
same,Cis/Trans Ratio of Isohumulone,"[1]; Day 44, 40° C.",7.974
same,Cis/Trans Ratio of Isohumulone,"[1]; Day 58, 40° C.",9.863
same,Redox Initial,[2],37.0
same,Redox After 14 Days,[2]; 39° C.,33.8
same,Redox Potential,[3]; 5 ppm CA,47.4
same,Redox Potential,[3]; 10 ppm CA,56.6
same,Redox Potential,[3]; 15 ppm CA,64.8
same,Redox Potential,[3]; 20 ppm CA,73.9
same,Redox Potential,[4]; 5 ppm CA,28.1
same,Redox Potential,[4]; 10 ppm CA,40.5
same,Redox Potential,[4]; 15 ppm CA,51.6
same,Redox Potential,[4]; 20 ppm CA,67.4
"O=C(/C=C/c1ccc(O)c(O)c1)O[C@H](Cc1ccc(O)c(O)c1)C(=O)O [RA, rosmarinic acid]",% Rosmarinic Acid in Solution,[5]; 0 days,12.07%
same,% Rosmarinic Acid in Solution,[5]; 3 days,12.45%
same,% Rosmarinic Acid in Solution,[5]; 5 days,12.40%
same,% Rosmarinic Acid in Solution,[5]; 15 days,12.12%
same,% Rosmarinic Acid in Solution,[5]; 38 days,11.36%
same,% Rosmarinic Acid in Solution,[5]; 54 days,11.74%
same,% Rosmarinic Acid in Solution,[5]; 86 days,10.88%
same,stability in hop acid solution,[5],stable in this formulation for at least three months; also recorded: very stable in the hop acid solution
same,"Panelist staling Average (0 fresh, 10 most stale)","[6]; Aged (32° C., seven days)",6.17
same,"Panelist staling Average (0 fresh, 10 most stale)",[6]; Fresh,0.67
same,flavor stabilization in model citrus beverage,[6]; scaling study of staling,not an effect flavor stabilizer
